Source: PubChem BioAssay (NCI)
Values joined by “and” are separate entries in the source; they are usually repeats but may differ in a detail not shown here. Identical values can stand only once.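 Assay format: 96-well plates, 48-hour exposure. The concentration for 50% growth inhibition is given as GI50. TGI is the concentration that stops growth completely.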

Experiments:
Experiment in all cases: NCI-60 cell line screen, 48 h
786-0 renal = tested on: 786-0 renal
CCRF-CEM leukemia = tested on: CCRF-CEM leukemia
HCT-15 colon = tested on: HCT-15 colon
IGROV1 ovarian = tested on: IGROV1 ovarian
M14 melanoma = tested on: M14 melanoma
OVCAR-5 ovarian = tested on: OVCAR-5 ovarian
RPMI-8226 leukemia = tested on: RPMI-8226 leukemia
SK-OV-3 ovarian = tested on: SK-OV-3 ovarian
SR leukemia = tested on: SR leukemia
SNB-75 CNS = tested on: SNB-75 CNS

SMILES	TGI (786-0 renal)	TGI (CCRF-CEM leukemia)	TGI (HCT-15 colon)	TGI (IGROV1 ovarian)	TGI (M14 melanoma)	TGI (OVCAR-5 ovarian)	TGI (RPMI-8226 leukemia)	TGI (SK-OV-3 ovarian)	TGI (SR leukemia)	TGI (SNB-75 CNS)	GI50 (786-0 renal)	GI50 (HCT-15 colon)	GI50 (IGROV1 ovarian)	GI50 (M14 melanoma)	GI50 (OVCAR-5 ovarian)	GI50 (RPMI-8226 leukemia)	GI50 (SK-OV-3 ovarian)	GI50 (SR leukemia)	GI50 (CCRF-CEM leukemia)	GI50 (SNB-75 CNS)
CC(C)=CCN1c2ccccc2NC(=O)CC1C (stereo unspecified)	> 100 µM	> 100 µM	> 100 µM	> 100 µM	> 100 µM	> 100 µM	> 100 µM	> 100 µM	> 100 µM	–	–	–	–	–	–	–	–	–	–	–
C/C=C/C(C#N)O[Si](C)(C)C (stereo unspecified)	> 100 µM	–	> 100 µM	> 100 µM	> 100 µM	> 100 µM	–	> 100 µM	–	> 100 µM	–	–	–	–	–	–	–	–	–	–
Cc1nc(C(N)=O)c(N)n1CCN1CCN(C(=O)CCCCCCCCCCNC2N=CNc3nc[nH]c32)CC1 (stereo unspecified)	> 100 µM	81.9 µM	> 100 µM	> 100 µM	82.8 µM	> 100 µM	–	> 100 µM	43.3 µM	–	–	–	–	–	–	–	–	–	–	–
COC1=NCc2ccccc2-c2ccccc21	> 100 µM	> 100 µM	> 100 µM	–	–	–	–	> 100 µM	–	> 100 µM	–	–	–	–	–	–	–	–	–	–
CC(=O)c1c(C(F)(F)F)n([O-])c2ccccc2[n+]1=O	15.3 µM	–	50.4 µM	3.78 µM	7.47 µM	3.67 µM	3.62 µM	23.9 µM	2.3 µM	–	2.86 µM	1.29 µM	1.02 µM	1.63 µM	1.18 µM	0.572 µM	3.17 µM	0.167 µM	–	–
C1CSCCCSCCCSCCCSCCCSCCCSCCCSCCCSC1	> 100 µM	> 100 µM	> 100 µM	> 100 µM	> 100 µM	> 100 µM	> 100 µM	> 100 µM	–	–	–	–	–	–	–	–	–	–	–	–
CN1N=CSC12C(=O)N(c1ccccc1)C(=O)N2c1ccccc1 (stereo unspecified)	> 100 µM	> 100 µM	> 100 µM	> 100 µM	> 100 µM	> 100 µM	> 100 µM	> 100 µM	–	> 100 µM	–	–	–	–	–	–	–	–	–	–
COC(=O)/C(=N\NC(C)(C)C)C(C(=O)OC)C(=O)C(=O)Nc1cc(Cl)ccc1Cl (stereo unspecified)	> 100 µM	> 100 µM	> 100 µM	> 100 µM	> 100 µM	> 100 µM	–	> 100 µM	> 100 µM	> 100 µM	–	–	–	–	–	–	–	–	–	–
COc1ccc2c(c1)C(=O)/C(=C/c1cccc(OCC(=O)c3ccccc3)c1)CC2	> 100 µM	7.67 µM	> 100 µM	> 100 µM	> 100 µM	> 100 µM	5.91 µM	> 100 µM	–	> 100 µM	54.4 µM	7.11 µM	4.19 µM	16.7 µM	> 100 µM	2.31 µM	62.9 µM	–	2.48 µM	42.4 µM
CN(C(=O)/C=C/c1ccccc1)C1C2CN3CCC(O2)C13 (stereo unspecified)	> 100 µM	> 100 µM	> 100 µM	> 100 µM	> 100 µM	> 100 µM	–	> 100 µM	–	> 100 µM	–	–	–	–	–	–	–	–	–	–
Cn1c(=O)c(N=Nc2c(=O)n(C)c(=O)n3c2[nH]c2ccccc23)c2[nH]c3ccccc3n2c1=O	> 100 µM	> 100 µM	> 100 µM	> 100 µM	> 100 µM	> 100 µM	> 100 µM	> 100 µM	–	91.6 µM	–	–	–	–	–	–	–	–	–	–
O=C(Oc1cccnc1)c1cccnc1Nc1ccnc(C(F)(F)F)c1	22.4 µM	10.5 µM	> 100 µM	> 100 µM	–	> 100 µM	23.7 µM	> 100 µM	–	–	5.17 µM	27.2 µM	9.51 µM	–	72.8 µM	3.94 µM	> 100 µM	–	2.49 µM	–
Nc1ncnc2c1ncn2C1OC(CSCC(F)(F)F)C(O)C1O (stereo unspecified)	> 100 µM	–	> 100 µM	> 100 µM	> 100 µM	> 100 µM	> 100 µM	> 100 µM	> 100 µM	> 100 µM	–	–	–	–	–	–	–	–	–	–
CN(C)CCNC(=O)Cn1ccc(=O)c2cc([N+](=O)[O-])ccc21	> 100 µM	> 100 µM	> 100 µM	> 100 µM	> 100 µM	> 100 µM	> 100 µM	> 100 µM	> 100 µM	–	–	–	–	–	–	–	–	–	–	–
O=C(O)CCNS(=O)(=O)c1ccc(NC(=O)c2ccccc2)cc1	> 100 µM	> 100 µM	> 100 µM	> 100 µM	> 100 µM	> 100 µM	> 100 µM	> 100 µM	–	> 100 µM	–	–	–	–	–	–	–	–	–	–
N#CC(C#N)=C/C=C(\Cl)c1ccc(Cl)cc1	15.7 µM	> 100 µM	> 42.2 µM	32 µM	7.38 µM	24.5 µM	> 100 µM	> 52.7 µM	37.3 µM	–	4.56 µM	4.5 µM	7.46 µM	1.93 µM	8.78 µM	4.12 µM	9.96 µM	3.31 µM	0.425 µM	–
COc1ccc(-c2noc(C(=O)O)c2-c2cc(OC)c(OC)c(OC)c2)cc1	> 100 µM	> 100 µM	> 100 µM	> 100 µM	–	> 100 µM	> 100 µM	> 100 µM	> 100 µM	–	4.85 µM	0.881 µM	4.91 µM	–	5.82 µM	4.01 µM	3.9 µM	0.402 µM	3.52 µM	–
Cc1ccc(S(=O)(=O)SC/C=C\CSS(=O)(=O)c2ccc(C)cc2)cc1	> 66.2 µM and 32.3 µM	37.6 µM	> 100 µM	> 100 µM and 79.2 µM	68.6 µM and 33.5 µM	> 100 µM	16.5 µM and 47 µM	98.9 µM and 83.2 µM	–	> 100 µM	–	6.16 µM and 43.4 µM	–	–	> 78.5 µM and 30 µM	–	–	–	–	–
COc1cc(/C=C/C(=O)/C=C/c2cc(OC)c3c(c2)OCO3)cc2c1OCO2	> 100 µM	> 100 µM	> 100 µM	> 100 µM	19.4 µM	> 100 µM	–	48.2 µM	–	42.5 µM	9.63 µM	4.42 µM	4.78 µM	4.03 µM	> 100 µM	–	3.46 µM	–	5.95 µM	8.55 µM
O=C(NCCCOC(=O)CCCCCCCCC(=O)OCCCNC(=O)NC(=O)c1c[nH]c(=O)[nH]c1=O)NC(=O)c1c[nH]c(=O)[nH]c1=O	> 100 µM	> 100 µM	> 100 µM	> 100 µM	> 100 µM	> 100 µM	> 100 µM	> 100 µM	–	–	–	–	–	–	–	–	–	–	–	–
